In patent US5395947A, “Platinum(II) complex and processes for preparing the same” (Sunkyong Industries, Ltd., priority 1991, dated 1995):

Columns and labels:
[1] = test system: murine leukemia L1210 cells; experiment: Growth inhibition test on cultured murine leukemia L1210 cells; assay type: cell-based; settings: 48 hours, 37° C., Trypan blue viability
How it was run: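 L1210 cells (1×10^5) exposed to graded compound concentrations in RPMI 1640 with 10% fetal calf serum, 37° C, 5% CO2, 48 h. Viability by 0.17% Trypan blue staining, relative to untreated control cells.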

[2] = test system: murine leukemia L1210; experiment: Antitumor activity test on murine leukemia L1210 in vivo; parameters: species or system male BDF1 mice; settings: days 1, 5, 9
How it was run: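 Intraperitoneal L1210 model: 1×10^6 cells inoculated i.p. into 6-week-old male BDF1 mice (21±3 g) on day 0, seven per group. Compounds in 0.5% CMC given i.p. on days 1, 5 and 9; vehicle-only controls. T/C % from mean survival time of treated over control.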

[3] = Test for water solubility; assay type: physicochemical; settings: water
Description: 3. Test for water solubility
A standard plot of UV absorbance(220 nm) vs. concentration was made; and employed to determine water-solubility.
The mixture was then passed through a 0.45 micron disposable membrane filter before dilution and UV measurement.

[4] = test system: ICR mice; experiment: Acute toxicity test; assay type: in vivo; parameters: Lethality: unit not given here; settings: for Lethality: 10080 min
Protocol: 7-week-old ICR mice(male: 34±2 g; female: 31±2 g) were fed with solid food and water under the condition of 23±1° C. temperature and 65±5% humidity before the test.
Each treatment group consisted of 6 mice. The test compounds were administered intraperitoneally.
For 7 days after the administration, the appearance and the fate of the tested animals were recorded. The dead animals were subjected to autopsy and their visible pathological changes were observed. Their viscerals were stored in 10% formalin solution.

For CCC1(C)OC2C[NH2+][Pt-2]3([NH2+]CC2O1)[O]CC(=O)[O]3 [Example 9, (glycolato-O,O')[(4R,5R)-4,5-bis(aminomethyl)-2-ethyl-2-methyl-1,3-dioxolane]platinum(II)], the “IC50 (concentration required for 50% inhibition of growth)” value [1] was 0.08 µg/mL, the “T/C (%)” value ([2]; 3.1 mg/kg i.p.) was 148% and the “T/C (%)” value ([2]; 6.2 mg/kg i.p.) was 187%. For the same compound, the “T/C (%)” value ([2]; 12.5 mg/kg i.p.) was 231%, the “T/C (%)” value ([2]; 25 mg/kg i.p.) was “toxic” and the “T/C (%)” value ([2]; 50 mg/kg i.p.) was “toxic”. The Solubility in water [3] was 11600 µg/mL, the “Number of dead mice for 7 days” value ([4]; female, 41.3 mg/kg i.p.) was 2/6 and the “Number of dead mice, 1st day” value ([4]; female, 41.3 mg/kg i.p.) was 0/6. For the same compound, the “Number of dead mice, 4th day” value ([4]; female, 41.3 mg/kg i.p.) was 2/6, the Lethality ([4]; female, 41.3 mg/kg i.p.) was 0.0 and the “Number of dead mice for 7 days” value ([4]; female, 54.9 mg/kg i.p.) was 4/6. The “Number of dead mice, 1st day” value ([4]; female, 54.9 mg/kg i.p.) was 0/6, the “Number of dead mice, 3rd day” value ([4]; female, 54.9 mg/kg i.p.) was 1/6 and the “Number of dead mice, 4th day” value ([4]; female, 54.9 mg/kg i.p.) was 3/5. The Lethality ([4]; female, 54.9 mg/kg i.p.) was 50.0, the “Number of dead mice for 7 days” value ([4]; female, 71.4 mg/kg i.p.) was 5/6 and the “Number of dead mice, 1st day” value ([4]; female, 71.4 mg/kg i.p.) was 0/6. The “Number of dead mice, 3rd day” value ([4]; female, 71.4 mg/kg i.p.) was 1/6, the “Number of dead mice, 4th day” value ([4]; female, 71.4 mg/kg i.p.) was 3/5 and the “Number of dead mice, 5th day” value ([4]; female, 71.4 mg/kg i.p.) was 1/2. The Lethality ([4]; female, 71.4 mg/kg i.p.) was 83.7, the “Number of dead mice for 7 days” value ([4]; female, 91.8 mg/kg i.p.) was 6/6 and the “Number of dead mice, 1st day” value ([4]; female, 91.8 mg/kg i.p.) was 0/6. For the same compound, the “Number of dead mice, 3rd day” value ([4]; female, 91.8 mg/kg i.p.) was 2/6, the “Number of dead mice, 4th day” value ([4]; female, 91.8 mg/kg i.p.) was 4/4 and the Lethality ([4]; female, 91.8 mg/kg i.p.) was 100.0. For the same compound, the “Number of dead mice for 7 days” value ([4]; male, 41.3 mg/kg i.p.) was 0/6, the “Number of dead mice, 1st day” value ([4]; male, 41.3 mg/kg i.p.) was 0/6 and the “Number of dead mice, 4th day” value ([4]; male, 41.3 mg/kg i.p.) was 2/6. For the same compound, the “Number of dead mice, 5th day” value ([4]; male, 41.3 mg/kg i.p.) was 1/4, the Lethality ([4]; male, 41.3 mg/kg i.p.) was 0.0 and the “Number of dead mice for 7 days” value ([4]; male, 54.9 mg/kg i.p.) was 4/6. For the same compound, the “Number of dead mice, 1st day” value ([4]; male, 54.9 mg/kg i.p.) was 0/6, the “Number of dead mice, 4th day” value ([4]; male, 54.9 mg/kg i.p.) was 2/6 and the “Number of dead mice, 5th day” value ([4]; male, 54.9 mg/kg i.p.) was 2/4. The Lethality ([4]; male, 54.9 mg/kg i.p.) was 66.7, the “Number of dead mice for 7 days” value ([4]; male, 71.4 mg/kg i.p.) was 5/6 and the “Number of dead mice, 1st day” value ([4]; male, 71.4 mg/kg i.p.) was 0/6. The “Number of dead mice, 4th day” value ([4]; male, 71.4 mg/kg i.p.) was 1/6, the “Number of dead mice, 5th day” value ([4]; male, 71.4 mg/kg i.p.) was 2/5 and the “Number of dead mice, 6th day” value ([4]; male, 71.4 mg/kg i.p.) was 2/3. For the same compound, the Lethality ([4]; male, 71.4 mg/kg i.p.) was 83.3, the “Number of dead mice for 7 days” value ([4]; male, 91.8 mg/kg i.p.) was 6/6 and the “Number of dead mice, 1st day” value ([4]; male, 91.8 mg/kg i.p.) was 0/6. The “Number of dead mice, 2nd day” value ([4]; male, 91.8 mg/kg i.p.) was 1/6, the “Number of dead mice, 3rd day” value ([4]; male, 91.8 mg/kg i.p.) was 4/5 and the “Number of dead mice, 4th day” value ([4]; male, 91.8 mg/kg i.p.) was 1/1. For the same compound, the Lethality ([4]; male, 91.8 mg/kg i.p.) was 100.0.
In the case of CC1[O][Pt][O]C1=O.NCC1OC2(CCCC2)OC1CN [Example 15, (L-lactato-O,O')[(4R,5R)-4,5-bis(aminomethyl)-1,3-dioxolane-2-spiro-1'-cyclopentane]platinum(II)], the “IC50 (concentration required for 50% inhibition of growth)” value [1] is reported as 0.33 µg/mL, the “T/C (%)” value ([2]; 12.5 mg/kg i.p.) is reported as 225% and the “T/C (%)” value ([2]; 25 mg/kg i.p.) is reported as 243%. For the same compound, the “T/C (%)” value ([2]; 50 mg/kg i.p.) was 192%, the Solubility in water [3] was 4900 µg/mL and the “Number of dead mice for 7 days” value ([4]; female, 41.3 mg/kg i.p.) was 0/6. For the same compound, the “Number of dead mice, 1st day” value ([4]; female, 41.3 mg/kg i.p.) was 0/6, the Lethality ([4]; female, 41.3 mg/kg i.p.) was 0.0 and the “Number of dead mice for 7 days” value ([4]; female, 54.9 mg/kg i.p.) was 3/6. The “Number of dead mice, 1st day” value ([4]; female, 54.9 mg/kg i.p.) was 0/6, the “Number of dead mice, 3rd day” value ([4]; female, 54.9 mg/kg i.p.) was 1/6 and the “Number of dead mice, 4th day” value ([4]; female, 54.9 mg/kg i.p.) was 1/5. For the same compound, the “Number of dead mice, 5th day” value ([4]; female, 54.9 mg/kg i.p.) was 1/4, the Lethality ([4]; female, 54.9 mg/kg i.p.) was 50.0 and the “Number of dead mice for 7 days” value ([4]; female, 71.4 mg/kg i.p.) was 5/6. The “Number of dead mice, 1st day” value ([4]; female, 71.4 mg/kg i.p.) was 0/6, the “Number of dead mice, 4th day” value ([4]; female, 71.4 mg/kg i.p.) was 1/6 and the “Number of dead mice, 5th day” value ([4]; female, 71.4 mg/kg i.p.) was 3/5. The “Number of dead mice, 6th day” value ([4]; female, 71.4 mg/kg i.p.) was 1/2, the Lethality ([4]; female, 71.4 mg/kg i.p.) was 83.7 and the “Number of dead mice for 7 days” value ([4]; female, 91.8 mg/kg i.p.) was 6/6. The “Number of dead mice, 1st day” value ([4]; female, 91.8 mg/kg i.p.) was 0/6, the “Number of dead mice, 2nd day” value ([4]; female, 91.8 mg/kg i.p.) was 1/6 and the “Number of dead mice, 3rd day” value ([4]; female, 91.8 mg/kg i.p.) was 2/5. The “Number of dead mice, 4th day” value ([4]; female, 91.8 mg/kg i.p.) was 2/3, the “Number of dead mice, 5th day” value ([4]; female, 91.8 mg/kg i.p.) was 1/1 and the Lethality ([4]; female, 91.8 mg/kg i.p.) was 100.0. For the same compound, the “Number of dead mice for 7 days” value ([4]; male, 41.3 mg/kg i.p.) was 0/6, the “Number of dead mice, 1st day” value ([4]; male, 41.3 mg/kg i.p.) was 0/6 and the Lethality ([4]; male, 41.3 mg/kg i.p.) was 0.0. The “Number of dead mice for 7 days” value ([4]; male, 54.9 mg/kg i.p.) was 4/6, the “Number of dead mice, 1st day” value ([4]; male, 54.9 mg/kg i.p.) was 0/6 and the “Number of dead mice, 3rd day” value ([4]; male, 54.9 mg/kg i.p.) was 2/6. For the same compound, the “Number of dead mice, 6th day” value ([4]; male, 54.9 mg/kg i.p.) was 2/4, the Lethality ([4]; male, 54.9 mg/kg i.p.) was 66.7 and the “Number of dead mice for 7 days” value ([4]; male, 71.4 mg/kg i.p.) was 5/6. For the same compound, the “Number of dead mice, 1st day” value ([4]; male, 71.4 mg/kg i.p.) was 0/6, the “Number of dead mice, 4th day” value ([4]; male, 71.4 mg/kg i.p.) was 4/6 and the “Number of dead mice, 5th day” value ([4]; male, 71.4 mg/kg i.p.) was 1/2. The Lethality ([4]; male, 71.4 mg/kg i.p.) was 83.3, the “Number of dead mice for 7 days” value ([4]; male, 91.8 mg/kg i.p.) was 6/6 and the “Number of dead mice, 1st day” value ([4]; male, 91.8 mg/kg i.p.) was 0/6. For the same compound, the “Number of dead mice, 2nd day” value ([4]; male, 91.8 mg/kg i.p.) was 2/6, the “Number of dead mice, 3rd day” value ([4]; male, 91.8 mg/kg i.p.) was 3/4 and the “Number of dead mice, 4th day” value ([4]; male, 91.8 mg/kg i.p.) was 1/1. The Lethality ([4]; male, 91.8 mg/kg i.p.) was 100.0.
